Test results published in PMC12501029, “Discovery of a CNS active GSK3 degrader using orthogonally reactive linker screening” (Nature Communications, 2025).

Assays:
[1] = molecular target: T1, GSK3β (Homo sapiens, UniProt P49841); assay: Immunoblot degradation of endogenous GSK3β in HEK293 cells; format: cell-based; settings: 10 nM; for endogenous GSK3β degradation: 2 h, HEK293
T1 construct: PROTAC-mediated degradation of untagged, endogenous GSK3β in HEK293 cells; host or cells: HEK293
Protocol: HEK293, HAP1, HAP1 CRBN KO and SH-SY5Y cells were plated in either 6 cm plates or 6-well plates at varying densities (0.5–0.7 × 10^6 cells per plate or wells), and MEF cells were plated in 10 cm plates (1–1.2 × 10^6 cells per plate) depending on experimental set up in respective culturing condition as described above. Stock solutions of compounds were prepared as 10 mM in DMSO (Sigma–Aldrich). Working dilutions were made up fresh in DMSO and culturing media or differentiation media was refreshed prior to any compound treatments. For mode of action studies, cells were pre-treated with inhibitors for 2 h: 1 µM MG132 (Merck, 474790-5 mg), 1 µM MLN4924 (Merck, 5054770001) or 1 µM GSK3 inhibitor (compound 29), before treating with PROTACs for 2, 4 or 24 h as indicated in figure legends. Cells were washed twice with ice-cold PBS (Gibco), harvested in PBS and pelleted, cells were resuspended in RIPA buffer supplemented with complete EDTA-free protease inhibitor cocktail (Roche,11873580001, 1/10 mL) and phosSTOP (Roche, 04906845001, 1 tablet/10 mL) for 20 min lysis on ice then cleared via centrifugation at 16,000 × g, 4 °C for 20 min. SH-SY5Y cells were lysed in 500 µL ice-cold lysis buffer (25 mM Tris-HCl (pH 7.4), 50 mM NaF, 100 mM NaCl, 1 mM EDTA, 4 mM EGTA, 1% (v/v) Triton-X-100, 0.09% (w/v) sucrose, 10 mM sodium pyrophosphate, 10 mM sodium vanodate, 0.1% (v/v) β-mercaptoethanol, supplemented with complete mini protease inhibitor tablet (Sigma; 1 tablet/ 10 mL buffer)). Lysates were flash frozen, thawed and centrifugated at 16,000 × g, 4 °C for 20 min. Following clearance of lysates, protein concentrations were determined by the BCA assay (Fisher Scientific, 23225) or Bradford assay (Bio-rad). Five to thirty micrograms of protein from lysates were prepared in 4×LDS buffer (Thermo Fisher) and 50 mM dithiothreitol (DTT) denaturated at 95 °C for 5 min. […]

[2] = molecular target: T2, GSK3β-HiBiT (Homo sapiens, UniProt P49841); assay: Kinetic live cell degradation assay (LgBit transfected GSK3β-HiBiT KI HEK293 cells); format: cell-based
T2 construct: we generated endogenously tagged GSK3β-HiBiT knock-in (KI) HEK293 cells; endogenous in cells; host or cells: GSK3β-HiBiT KI HEK293 cells, transiently transfected with LgBit (Promega)
Protocol: For kinetic degradation assays, GSK3β-HiBiT KI HEK293 cells were reverse transfected into white bottom opaque 96-well assay plates. Briefly, GSK3β-HiBiT KI HEK293 cell suspension at a density of 2 × 10^6 per mL was prepared in standard culturing media. 10 mL of cell suspension mixed with transfection mix (1 mL of OptiMEM (Gibco) containing 3:1 ratio of FuGENE HD (Promega) and LgBit (Promega)). Then, cells were seeded into 96-well assay plate as a 100 µL cell suspension per well. After 24 h of transfection, the cell media was removed and 90 µL of CO2-independent medium supplemented with 10% FBS (Gibco) and 1:100 dilution of Endurazine (Promega) and incubated for 2.5 h at 37 °C. Test compounds were added onto cells and luminescence signals were monitored and recorded on GloMAX discover plate reader (Promega) in kinetic mode every 5 min. Data were normalised to DMSO conditions and plotted over time and degradation rates were calculated via Michaelis–Menten non-linear fitting analysis using GraphPad Prism (v10.1.2).

T1 sequence (P49841 whole entry): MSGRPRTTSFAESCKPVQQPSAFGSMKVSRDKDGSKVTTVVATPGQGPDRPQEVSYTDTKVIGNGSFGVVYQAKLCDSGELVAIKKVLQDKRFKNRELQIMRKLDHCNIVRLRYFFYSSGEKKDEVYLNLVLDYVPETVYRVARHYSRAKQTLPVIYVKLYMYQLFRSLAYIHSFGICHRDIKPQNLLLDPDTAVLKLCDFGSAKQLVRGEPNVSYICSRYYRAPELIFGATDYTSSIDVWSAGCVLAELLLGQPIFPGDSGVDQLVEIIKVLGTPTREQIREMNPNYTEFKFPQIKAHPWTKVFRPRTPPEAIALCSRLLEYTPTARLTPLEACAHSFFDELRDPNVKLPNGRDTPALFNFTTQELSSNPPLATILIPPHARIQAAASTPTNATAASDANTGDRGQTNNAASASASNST
T2 sequence (P49841 whole entry): as above
T2 sequence (Q96SW2 whole entry partner): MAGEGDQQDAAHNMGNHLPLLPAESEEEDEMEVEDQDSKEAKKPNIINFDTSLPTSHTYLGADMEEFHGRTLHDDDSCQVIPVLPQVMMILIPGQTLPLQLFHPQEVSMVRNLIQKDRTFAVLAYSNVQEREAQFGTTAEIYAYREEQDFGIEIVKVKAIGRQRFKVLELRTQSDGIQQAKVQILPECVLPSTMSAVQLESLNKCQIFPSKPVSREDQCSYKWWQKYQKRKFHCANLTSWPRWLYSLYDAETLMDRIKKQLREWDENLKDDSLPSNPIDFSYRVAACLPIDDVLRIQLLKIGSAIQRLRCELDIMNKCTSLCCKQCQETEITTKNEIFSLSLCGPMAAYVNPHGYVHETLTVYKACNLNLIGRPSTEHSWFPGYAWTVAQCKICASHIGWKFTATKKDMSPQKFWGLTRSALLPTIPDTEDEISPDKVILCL

SMILES: Cn1nc(N2CCC(=O)NC2=O)c2ccc(CN3CCN(Cc4ccc(-c5cn(-c6ccc(-c7cn8nccc(C(=O)Nc9cnccc9N9CCOCC9)c8n7)cc6)nn5)nc4)CC3)cc21 [compound 24]
- impact on GSK3 levels ([1]; 30 min, HEK cells): little impact
- endogenous GSK3β degradation [1]: almost complete removal
- maximal degradation rate (λmax) ([2]; live cell, Michaelis-Menten fit): ~ 1.0 h^−1

SMILES: Cn1nc(N2CCC(=O)NC2=O)c2ccc(CN3CCN(CCCc4cn(-c5ccc(-c6cn7nccc(C(=O)Nc8cnccc8N8CCOCC8)c7n6)cc5)nn4)CC3)cc21 [compound 26]
- endogenous GSK3β degradation [1]: almost complete
- degradation of GSK3β in live cells ([2]; 10 nM, after 2 h): almost complete degradation
